The text below walks through data of patent publication EP4796530A1 (Biocells (Beijing) Biotech Co., Ltd., priority 2023, dated 2025).

pIC50: −log10 of the molar value.

For data set [1], the target named is T1, NLRP3 (Mus musculus, UniProt Q8R4B8). The data set is described as follows: Inhibition of canonical NLRP3 activation (LPS+ATP/Nig) in J774A.1 cells, IL-1β release by ELISA, single concentration. The conditions noted are these: J774.A1, 1 µM compound, LPS + 5 mM ATP or 10 µM Nig, compared with the positive control, read-out: inhibition of IL-1β release. Further details: The mouse macrophage cell line J774A.1 was used, and LPS was used as the first signal; host or cells: J774A.1 mouse monocyte-macrophage cell line. The format is cell-based. Here is the method: J774A.1 cells were plated in a 48-well plate at a density of 1.0×10^6 cells/mL, with 300 µL per well. Subsequently, NLRP3 was activated using LPS+5 mM ATP (adenosine triphosphate) or 10 µM Nig (nigericin). […] ATP was purchased from Sigma, Cat. No.: L2654. Nig was purchased from Shanghai Yuanye Bio-Technology Co., Ltd., Cat. No.: S45490.
Experimental groups: a negative control group, an LPS-alone incubation control group, an LPS+ATP or +Nig positive control group, and an example compound experimental group.
After the plated J774A.1 cells adhering to the plate, the culture medium was replaced. For all the groups except the negative control group, the culture medium was completely replaced with cell culture medium containing 1 µg/mL LPS. The negative control group received cell culture medium. Then, all the groups were incubated overnight. 18 h later, the culture medium was replaced again. The culture medium of the example compound experimental group was completely replaced with cell culture medium containing the compounds; while the negative control group, the LPS-alone incubation control group, and the LPS+ATP/Nig positive control group received cell culture medium. 1 h later, the culture mediums of the LPS+ATP/Nig positive control group and the example compound experimental group were completely replaced with cell culture medium containing 5 mM ATP or 10 µM Nig. 1 h later, the cell supernatants were collected for IL-1β detection.
Therefore, the relative change in the amount of IL-1β release may directly reflect NLRP3 inhibitory effect.
(An ELISA detects its analyte on a solid surface through an enzyme-linked reagent.)

Data set [2] concerns the target T1, NLRP3. The data set is described as follows: Inhibition of APOE peptide-induced NLRP3 activation in J774A.1 cells, IL-1β release. Further details: The mouse macrophage cell line J774A.1 was used, and LPS was used as the first signal; host or cells: J774A.1 mouse monocyte-macrophage cell line. The conditions noted are these: J774.A1, 10 µM compound, 30 µg/mL APOE peptide. The data set is classed as cell-based. The procedure: J774A.1 cells were plated in a 48-well plate at a density of 1.0×10^6 cells/mL, with 300 µL per well. Subsequently, NLRP3 was activated by APOE peptide. The cell culture medium comprises: DMEM (brand: Gibco, Cat. No.: C12430500) + 10% fetal bovine serum (brand: Gibco, Cat. No.: 10099-141) + 1% sodium pyruvate (brand: Gibco, Cat. No.: 11360-070) + 1% penicillin-streptomycin solution (brand: Solarbio, Cat. No.: P1400). The J774A.1 mouse monocyte-macrophage cell line was purchased from the Cell Resource Center of the Institute of Basic Medical Sciences of Chinese Academy of Medical Sciences (Resource No. 1101MOU-PUMC000222). APOE2/3 peptide 1-151 was obtained through recombinant protein expression and purification by Biocells (Beijing) Biotech Co., Ltd. The procedures were as follows: the sequence (SEQ ID NO: 1) shown below was inserted into the pET-28A plasmid and transformed into BL-21(DE3) expression strain; the expression of target protein was induced with IPTG at a low temperature; after collecting the bacteria via centrifugation, ultrasonic disruption was performed; and after centrifugation, the supernatant was purified by nickel ion affinity chromatography (AKTA pure), and then the product was concentrated by ultrafiltration and identified by BCA+protein electrophoresis. Sequence: [formula]
Experimental groups: a negative control group, an APOE treatment control group, and an example compound experimental group.
After the plated J774A.1 cells adhering to the plate, the culture medium was replaced. The culture medium of the APOE treatment control group was replaced with cell culture medium containing 30 µg/mL APOE peptide, the culture medium of the example compound experimental group was replaced with culture medium containing 30 µg/mL APOE peptide combined with the compounds, and the negative control group received cell culture medium. Then, all the groups were incubated overnight. 18 h later, the cell supernatants were collected for IL-1β detection.
Activation of NLRP3 by APOE peptide will result in release of mature IL-1β, and the release can be inhibited by NLRP3 inhibitors. Therefore, the relative change in the amount of IL-1β release may directly reflect NLRP3 inhibitory effect.
In this experimental example, effective inhibition refers to a reduction of 70% or more in the release amount, compared with the release amount of the positive control minus the negative control.

The target of data set [3] is T1, NLRP3. The data set is described as follows: Inhibition curves (IC50) of canonical NLRP3 activation in J774A.1 cells, IL-1β release. The format is cell-based. Set-up: The mouse macrophage cell line J774A.1 was used, and LPS was used as the first signal; host or cells: J774A.1 mouse monocyte-macrophage cell line. The conditions noted are these: J774A.1 cell LPS+Nig activation model. The procedure:
J774A.1 cells were plated in a 48-well plate at a density of 1.0×10^6 cells/mL, with 300 µL per well. Subsequently, NLRP3 was activated by LPS+ATP or LPS+Nig. […] ATP was purchased from Sigma, Cat. No.: L2654. Nig was purchased from Shanghai Yuanye Bio-Technology Co., Ltd., Cat. No.: S45490.
Experimental groups: a negative control group, an LPS-alone incubation control group, an LPS+ATP/Nig positive control group, and an example compound experimental group with different concentrations.
After the plated J774A.1 cells adhering to the plate, the culture medium was replaced. For all the groups except the negative control group, the culture medium was completely replaced with cell culture medium containing 1 µg/mL LPS. The negative control group received cell culture medium. Then, all the groups were incubated overnight. 18 h later, the culture medium was replaced again. The culture medium of the example compound experimental group was completely replaced with culture medium containing different concentrations of compounds; while the negative control group, the LPS-alone incubation control group, and the LPS+ATP/Nig positive control group received cell culture medium. 1 h later, the culture mediums of the LPS+ATP/Nig positive control group and the example compound experimental group with different concentrations were completely replaced with cell culture medium containing 5 mM ATP or 10 µM Nig. 1 h later, the cell supernatants were collected for IL-1β detection.
(§1) Therefore, the relative change in the amount of IL-1β release may directly reflect NLRP3 inhibitory effect. The inhibitory effect of the compounds varies with different concentrations, and based on this, an inhibition curve can be constructed, and the inhibitory effects of the compounds were assessed by IC50.

The nature of data set [4]: Mouse pharmacokinetics after intravenous administration (plasma and brain, LC-MS). The conditions noted are these: C57 mice, intravenous 5 mg/kg; for concentration at 120 min: brain after cardiac perfusion, read-out: brain drug concentration at 120 min; for half-life / AUC: plasma; for AUC: read-out: area under the curve (AUC) from 1 to 120 min. The data set is classed as in vivo. The procedure: C57 mice were administered intravenously, at a dosage concentration of 5 mg/kg in each group. Retro-orbital blood collection was performed on the mice at 1 min, 30 min, 1 h, and 2 h post-dosing. The collected blood was centrifuged at 3000 rpm for 10 min at 4 °C to obtain plasma. Acetonitrile was added at a 1:3 volume ratio of plasma: acetonitrile to precipitate proteins. After centrifugation, the supernatant was collected and filtered. The concentration of the compound was detected using LC-MS (Agilent 1260-G6125, SIM mode). In addition, 2 h after drug injection, the mice were subjected to cardiac perfusion and then their brains were harvested. Following tissue homogenization and centrifugation, the supernatant was collected. Acetonitrile was added at a 1:3 volume ratio of supernatant: acetonitrile to precipitate proteins. After centrifugation, the supernatant was collected and filtered. The concentration of the compound was detected using LC-MS (Agilent 1260-G6125, SIM mode).
(§2) Experimental groups: a vehicle control group, and a dosing group.

The nature of data set [5]: Rat plasma pharmacokinetics after intravenous administration (LC-MS). The data set is classed as in vivo. The conditions noted are these: SD rats, intravenous 2.5 mg/kg. Here is the method: SD rats were administered intravenously, at a dosage concentration of 2.5 mg/kg in each group. Blood was collected at the time points of 1 min, 30 min, 1 h, 2 h, 4 h, 6 h, and 24 h. The collected blood was centrifuged at 3000 rpm for 10 min at 4 °C to obtain plasma. Acetonitrile was added at a 1:3 volume ratio of plasma: acetonitrile to precipitate proteins. After centrifugation, the supernatant was collected and filtered. The concentration of the compound was detected using LC-MS (Agilent 1260-G6125, SIM mode).
as §2

In data set [6] the target is T2, NLRP3 (Homo sapiens, UniProt Q96P20). Kind of data set: Inhibition curves (IC50) of canonical NLRP3 activation (LPS+Nig) in THP-1 cells, IL-1β release. The conditions noted are these: THP-1 cell LPS+Nig activation model. Set-up: host or cells: THP-1 human acute monocytic leukemia cell line, PMA-differentiated. The data set is classed as cell-based. The procedure:
Nig was purchased from Shanghai Yuanye Bio-Technology Co., Ltd., Cat. No.: S45490.
The cells were incubated overnight.
as §1

For data set [7], the target named is T2, NLRP3. Kind of data set: Inhibition of canonical NLRP3 activation (LPS+Nig) in PMA-differentiated THP-1 cells, IL-1β release, single concentration. The conditions noted are these: 1 µM compound, FIG. 6 legend.
Procedure: THP-1 cells were plated in a 96-well plate at a density of 1.0×10^6 cells/mL, with 100 µL per well. Subsequently, PMA-induced differentiation and cell resting were performed, followed by activation of NLRP3 by LPS+Nig.
Experimental groups: a negative control group, an LPS-alone incubation control group, an LPS+Nig positive control group, and a 1 µM example compound experimental group.
100 ng/mL PMA was added at the same time as THP-1 cells were plated. After incubation for 24 h, the cells were washed three times with PBS, and then the culture medium was changed and the cells were allowed to rest for 24 h. Then the culture medium was completely replaced with medium containing 1 µg/mL LPS. The cells were incubated overnight. On the next day, the wells to which LPS was added completely received culture medium, and then the wells were incubated with specified example compounds for 1 h.
In this experimental example, effectively inhibiting IL-1β release means that the release amount in each group is reduced by 50% or more compared with that of the positive control.

T1 sequence (Q8R4B8 whole entry): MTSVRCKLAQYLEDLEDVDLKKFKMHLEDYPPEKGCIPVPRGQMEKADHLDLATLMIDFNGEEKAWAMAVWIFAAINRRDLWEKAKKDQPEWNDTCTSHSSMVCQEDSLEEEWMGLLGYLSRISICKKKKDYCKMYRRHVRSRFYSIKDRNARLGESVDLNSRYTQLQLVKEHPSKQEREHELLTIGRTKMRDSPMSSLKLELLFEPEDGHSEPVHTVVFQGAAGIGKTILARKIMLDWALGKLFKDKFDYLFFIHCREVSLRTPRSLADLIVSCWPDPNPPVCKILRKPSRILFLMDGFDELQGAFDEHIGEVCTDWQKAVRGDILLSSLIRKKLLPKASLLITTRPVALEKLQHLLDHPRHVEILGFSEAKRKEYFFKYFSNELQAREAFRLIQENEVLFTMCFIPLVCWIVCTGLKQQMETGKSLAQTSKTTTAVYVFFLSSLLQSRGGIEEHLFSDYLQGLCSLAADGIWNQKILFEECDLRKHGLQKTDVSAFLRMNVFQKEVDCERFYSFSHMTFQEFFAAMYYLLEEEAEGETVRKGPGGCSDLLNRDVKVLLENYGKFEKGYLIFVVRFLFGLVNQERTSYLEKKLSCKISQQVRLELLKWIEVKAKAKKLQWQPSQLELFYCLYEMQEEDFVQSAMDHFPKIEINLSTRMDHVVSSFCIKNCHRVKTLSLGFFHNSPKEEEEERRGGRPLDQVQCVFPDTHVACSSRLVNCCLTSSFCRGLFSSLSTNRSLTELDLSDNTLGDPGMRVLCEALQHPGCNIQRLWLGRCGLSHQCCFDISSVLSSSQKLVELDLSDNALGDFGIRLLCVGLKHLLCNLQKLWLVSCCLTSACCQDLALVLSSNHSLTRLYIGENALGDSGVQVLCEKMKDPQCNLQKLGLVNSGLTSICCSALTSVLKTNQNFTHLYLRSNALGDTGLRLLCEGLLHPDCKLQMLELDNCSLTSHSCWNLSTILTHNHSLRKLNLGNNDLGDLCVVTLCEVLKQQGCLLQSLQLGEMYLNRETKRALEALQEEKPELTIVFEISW
T2 sequence (Q96P20 whole entry): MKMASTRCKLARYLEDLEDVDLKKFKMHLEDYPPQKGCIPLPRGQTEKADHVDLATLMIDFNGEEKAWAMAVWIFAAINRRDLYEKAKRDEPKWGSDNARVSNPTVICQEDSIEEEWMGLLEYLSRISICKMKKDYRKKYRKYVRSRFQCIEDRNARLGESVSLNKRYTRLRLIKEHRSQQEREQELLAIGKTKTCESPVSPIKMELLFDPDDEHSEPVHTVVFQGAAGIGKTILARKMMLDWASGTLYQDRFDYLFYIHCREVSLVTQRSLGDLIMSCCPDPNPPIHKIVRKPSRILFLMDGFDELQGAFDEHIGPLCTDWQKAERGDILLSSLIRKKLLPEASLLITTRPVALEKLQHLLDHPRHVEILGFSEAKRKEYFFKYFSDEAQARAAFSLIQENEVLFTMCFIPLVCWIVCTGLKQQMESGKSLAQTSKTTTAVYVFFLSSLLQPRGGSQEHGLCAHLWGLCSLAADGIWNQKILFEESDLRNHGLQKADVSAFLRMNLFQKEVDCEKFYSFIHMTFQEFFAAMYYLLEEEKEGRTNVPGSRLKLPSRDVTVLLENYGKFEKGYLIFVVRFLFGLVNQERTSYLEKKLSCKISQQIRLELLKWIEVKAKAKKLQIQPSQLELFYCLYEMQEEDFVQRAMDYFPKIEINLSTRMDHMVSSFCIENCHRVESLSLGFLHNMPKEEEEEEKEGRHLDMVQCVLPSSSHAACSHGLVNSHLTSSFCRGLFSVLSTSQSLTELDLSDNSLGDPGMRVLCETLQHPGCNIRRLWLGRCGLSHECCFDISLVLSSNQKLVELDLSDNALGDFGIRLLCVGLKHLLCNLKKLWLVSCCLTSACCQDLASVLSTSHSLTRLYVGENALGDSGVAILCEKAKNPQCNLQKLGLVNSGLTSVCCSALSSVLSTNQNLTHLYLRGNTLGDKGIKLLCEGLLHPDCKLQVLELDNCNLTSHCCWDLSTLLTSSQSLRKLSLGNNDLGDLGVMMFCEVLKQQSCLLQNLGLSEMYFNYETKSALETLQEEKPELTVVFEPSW

For the compound `CN(C)Cc1cc(S(=O)(=O)NC(=O)Nc2c3c(cc4c2CCC4)CCC3)c(F)cc1N` [Example 22, 4-amino-5-((dimethylamino)methyl)-2-fluoro-N-((1,2,3,5,6,7-hexahydros-indacen-4-yl)carbamoyl)benzenesulfonamide], the inhibition at 1 µM on NLRP3 [1] is above 80%. In addition, the inhibition at 10 µM against NLRP3 [2] was at least 70%. This compound also gave a pIC50 at NLRP3 [3] of 6.89.

In the case of `Cc1c(CN(C)C)cccc1S(=O)(=O)NC(=O)Nc1c2c(cc3c1CCC3)CCC2` [Example 26, 3-((dimethylamino)methyl)-N-((1,2,3,5,6,7-hexahydro-s-indacen-4-yl)carbamoyl)-2-methylbenzenesulfonamide], at NLRP3 [1], the inhibition at 1 µM was above 80%. In addition, the inhibition at 10 µM against NLRP3 [2] was at least 70%. Besides, the negative-log IC50 (pIC50) on NLRP3 [3] is 7.09.

For the compound `CN(C)C1CCOc2c1cccc2S(=O)(=O)NC(=O)Nc1c2c(cc3c1CCC3)CCC2` (centres unmarked) [Example 32, 4-(dimethylamino)-N-((1,2,3,5,6,7-hexahydro-s-indacen-4-yl)carbamoyl)chromane-8-sulfonamide], at NLRP3 [3], the pIC50 was 6.41.

For `CC(C)(O)c1coc(S(=O)(=O)NC(=O)Nc2c3c(cc4c2CCC4)CCC3)c1` [MCC950, reference compound], in data set [4], the concentration at 120 min amounted to 0 ng/mL, the half-life stood at 1.28 h and the AUC came out at 29600 ng·h/mL. Besides, the half-life in data set [5] is 0.267 h. Besides, the area under the curve (AUC) in data set [5] (read-out: AUC from 1 to 1440 min) is 4380 ng·h/mL.

For the compound `Cc1c(S(=O)(=O)NC(=O)Nc2c3c(cc4c2CCC4)CCC3)ccc(O)c1CN(C)C` [Example 30, 3-((dimethylamino)methyl)-N-((1,2,3,5,6,7-hexahydro-s-indacen-4-yl)carbamoyl)-4-hydroxy-2-methylbenzenesulfonamide], the pIC50 at NLRP3 [6] is 7.44; at NLRP3 [3], 6.84.

As for `CN(C)Cc1cc(S(=O)(=O)NC(=O)Nc2c3c(cc4c2CCC4)CCC3)cc(F)c1O` [Example 17, 3-((dimethylamino)methyl)-5-fluoro-N-((1,2,3,5,6,7-hexahydro-s-indacen-4-yl)carbamoyl)-4-hydroxybenzenesulfonamide], in data set [4], the concentration at 120 min was found to be 184 ng/mL, the half-life turned out to be 3.85 h and the AUC stood at 15500 ng·h/mL. In addition, the “reduction in release amount compared with that of the positive control minus the LPS-alone control” value at NLRP3 [7] is at least 75%. The inhibition at 1 µM on NLRP3 [1] was above 80%. This compound showed an inhibition at 10 µM on NLRP3 [2] of at least 70%. Further, the pIC50 on NLRP3 [3] was 6.71.

On to `CN(C)Cc1cccc(S(=O)(=O)NC(=O)Nc2c3c(cc4c2CCC4)CCC3)c1Cl` [Example 1, 2-chloro-3-((dimethylamino)methyl)-N-((1,2,3,5,6,7-hexahydro-s-indacen-4-yl)carbamoyl)benzenesulfonamide], for which the inhibition at 1 µM at NLRP3 [1] was above 80%. The compound further showed a pIC50 against NLRP3 [3] of 7.19.

`CN(C)Cc1c(O)ccc(S(=O)(=O)NC(=O)Nc2c3c(cc4c2CCC4)CCC3)c1F` [Example 31, 3-((dimethylamino)methyl)-2-fluoro-N-((1,2,3,5,6,7-hexahydro-s-indacen-4-yl)carbamoyl)-4-hydroxybenzenesulfonamide] gave a pIC50 on NLRP3 [3] of 6.69.

On to `CN(C)Cc1cccc(S(=O)(=O)NC(=O)Nc2c3c(cc4c2CCC4)CCC3)c1[N+](=O)[O-]` [Example 18, 3-((dimethylamino)methyl)-N-((1,2,3,5,6,7-hexahydro-s-indacen-4-yl)carbamoyl)-2-nitrobenzenesulfonamide], for which the inhibition at 1 µM on NLRP3 [1] is above 80%. On NLRP3 [2], this compound returned an inhibition at 10 µM of at least 70%.

One may read the inhibition as how much of the control response was suppressed. By pIC50 is commonly meant −log10 of the IC50, conventionally taken in molar units. A high value points to a low IC50. The term half-life denotes how long it takes for the measured level to halve. The low end stands for fast loss, the high end for slow loss. Usually AUC stands for the area under the concentration-time curve, a measure of exposure.
